Test results as given in patent US20160150784A1, “SYNERGISTIC PESTICIDAL COMPOSITIONS AND RELATED METHODS” (Dow AgroSciences LLC, priority 2013, published 2016).
“And” between values parts separate entries of the source, which are not always exact repeats. Equal values may be shown once.

Assays:
[1] = tested on: brown stink bug, Euschistus heros; test: Diet bioassay on second-instar nymphs of brown stink bug, percent control, synergy by Colby's equation; assay type: in vivo; conditions: single active, dose rate 0.04 weight %
Description: (§1) The method described in Colby S. R., “Calculating Synergistic and Antagonistic Responses of Herbicide Combinations,” Weeds, 1967, 15, 20-22 was used to determine an existence of synergic effect between the ryanodine receptor modulator compound and the pesticide (I), (II), or any agriculturally acceptable salt thereof in the formulated pesticidal composition. In this method, the percent insect control of the formulated pesticidal composition as observed in the study was compared to the “expected” percent control (E) as calculated by equation (1) (hereinafter “Colby's equation”) below: […]
(§2) where • X is the percentage of control with the first pesticide at a given rate (p), • Y is the percentage of control with the second pesticide at a given rate (q), and • E is the expected control by the first and second pesticide at a rate of p+q.
The percent control of the pesticidal composition against brown stink bug, Euschistus heros, was determined as the “Observed” action, and compared to those obtained by using about 0.04 weight % of compound II, and using about 0.000156 weight % of cyantraniliprole alone. The “Colby's Expected Action” was calculated using Colby's equation as discussed previously.

[2] = tested on: diamondback moth, Plutella xylostella; test: Cabbage leaf disc bioassay (track sprayer, 400 L/Ha) on second instar diamondback moths, percent control, synergy by Colby's equation; assay type: in vivo; conditions: single active
Description: as §1, §2
Bioassays were performed for different active compounds. Cabbage plants with about two to three new-growth—true leaf stage were treated with different pesticides using a track sprayer application at 400 L/Ha spray volume. Three second instar diamondback moths, Plutella xylostella, were infested onto each leaf disc.
Bioassays were performed for different active compounds. Cabbage plants with about two to three new-growth—true leaf stage were treated with different pesticides using a track sprayer at a rate of 400 L/Ha. Three second instar diamondback moths, Plutella xylostella, were infested onto each leaf disc.

## CCN(C(=O)CC[S+]([O-])CCC(F)(F)F)c1cn(-c2cccnc2)nc1Cl (stereo not drawn) [Compound II, N-(3-chloro-1-(pyridin-3-yl)-1H-pyrazol-4-yl)-N-ethyl-3-((3,3,3-trifluoropropyl)sulfinyl)propanamide]
[1]
  % Control Six Days After Treatment: 0%

## CCN(C(=O)CCSCCC(F)(F)F)c1cn(-c2cccnc2)nc1Cl [Compound I, N-(3-chloro-1-(pyridin-3-yl)-1H-pyrazol-4-yl)-N-ethyl-3-((3,3,3-trifluoropropyl)thio)propanamide]
[2]; dose rate 0.0025 weight %
  % Control Three Days After Treatment: 4.35% and 0%

## Cc1cc(C(F)(C(F)(F)F)C(F)(F)F)ccc1NC(=O)c1cccc(I)c1C(=O)NC(C)(C)CS(C)(=O)=O [Flubendiamide]
[2]; dose rate 0.0003125 weight %
  % Control Three Days After Treatment: 8.70%

## CNC(=O)c1cc(Cl)cc(C)c1NC(=O)c1cc(Br)nn1-c1ncccc1Cl [Chlorantraniliprole, 3-bromo-N-[4-chloro-2-methyl-6-[(methylamino)carbonyl]phenyl]-1-(3-chloro-2-pyridinyl)-1H-pyrazole-5-carboxamide]
[2]; dose rate 0.0000347 weight %
  % Control Three Days After Treatment: 25%
[2]; dose rate 0.000104 weight %
  % Control Three Days After Treatment: 62.5%
[2]; dose rate 0.0003125 weight %
  % Control Three Days After Treatment: 66.67%
